Values quoted from earlier work, collected in PMC5161541 (Nuclear medicine and biology, 2016).

Columns and labels:
σ2 receptors = biological target: T1, σ2 receptors (Mus musculus, UniProt Q8VD00); settings: read-out: Sigma-2, Ki; cited from earlier work
T1 sequence (Q8VD00 1-176): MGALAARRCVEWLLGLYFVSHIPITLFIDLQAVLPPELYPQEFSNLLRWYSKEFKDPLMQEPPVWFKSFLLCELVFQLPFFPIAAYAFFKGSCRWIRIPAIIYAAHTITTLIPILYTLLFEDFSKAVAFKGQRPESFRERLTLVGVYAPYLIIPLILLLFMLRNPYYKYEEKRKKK

[1] = tested on: (−)-cocaine induced locomotor hyperactivity; settings: cited from earlier work
σ1 receptors = σ1 receptors (Mus musculus, UniProt O55242); settings: cited from earlier work
σ1 receptors, sequence (O55242 whole entry): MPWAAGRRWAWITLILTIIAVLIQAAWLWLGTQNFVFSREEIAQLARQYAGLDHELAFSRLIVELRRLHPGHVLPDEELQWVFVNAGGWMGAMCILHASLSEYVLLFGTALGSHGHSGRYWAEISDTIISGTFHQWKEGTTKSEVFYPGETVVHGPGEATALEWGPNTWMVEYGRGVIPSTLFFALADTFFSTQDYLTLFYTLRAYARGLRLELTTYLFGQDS

In the case of COc1ccc(CCN2CCN(C/C=C/I)CC2)cc1OC [E-IA-DM-PE-PIPZE, (E)-1-(2-(2,3-dimethoxy-5-yl)ethyl)-4-(iodoallyl)piperazine], the Ki (σ2 receptors) is given as 1450 ± 220 nM, the “effect on (−)-cocaine induced locomotor hyperactivity” value [1] is given as “partially attenuates” and the “Selectivity: σ2/σ1” value (σ1 receptors) is given as 216. For the same molecule, the Ki (σ1 receptors; read-out: Sigma-1, Ki) was 6.7 ± 0.9 nM.
